# Laboratory results as given in US7834023B2 (Portola Pharmaceuticals, Inc., priority 2006, dated 2010).
# Target: T1, P2Y12 receptor (Homo sapiens, UniProt Q9H244)
# T1 construct: endogenous in cells; host or cells: human platelets (outdated from blood banks or fresh), apyrase-washed, whole
# Assay: platelet ADP receptor binding assay (ARB): inhibition of [3H]2-MeS-ADP binding to platelets
# Conditions: [3H]2-MeS-ADP binding to apyrase-washed human platelets
# Procedure: 1. The Ability of Candidate Molecules to Inhibit the Binding of [^3H]2-MeS-ADP to the […] Receptor on Platelets was Determined Using a Radioligand Binding Assay.
# Utilizing this assay the potency of inhibition of such compounds with respect to [^3H]2-MeS-ADP binding to whole platelets is determined. Under the conditions described in II (3) below, the binding of [^3H]2-MeS-ADP is solely due to the interaction of this ligand with the P2Y12 receptor, in that all the specific binding measured in this assay is competable with a P2Y12 antagonist (i.e., the specific binding is reduced to background levels by competition with an excess of P2Y12 antagonist, with no competition of binding when a P2Y1 antagonist is pre-incubated with the platelet preparation). [^3H]2-MeS-ADP binding experiments are routinely performed with outdated human platelets collected by standard procedures at hospital blood banks. Apyrase-washed outdated platelets are prepared as follows (all steps at room temperature, if not indicated otherwise):
# Outdated platelet suspensions are diluted with 1 volume of CGS and platelets pelleted by centrifugation at 1900×g for 45 minutes. Platelet pellets are resuspended at 3-6×10^9 platelets/ml in CGS containing 1 U/ml apyrase (grade V, Sigma, St. Louis, Mo.) and incubated for 15 minutes at 37° C. After centrifugation at 730×g for 20 minutes, pellets are resuspended in Hepes-Tyrode's buffer containing 0.1% BSA (Sigma, St. Louis, Mo.) at a concentration of 6.66×10^8 platelets/ml. Binding experiments are performed after >45 minutes resting of the platelets.
# Alternatively, binding experiments are performed with fresh human platelets prepared as described in section I (Inhibition of ADP-Mediated Platelet Aggregation in vitro), except that platelets are resuspended in Hepes-Tyrode's buffer containing 0.1% BSA (Sigma, St. Louis, Mo.) at a concentration of 6.66×10^8 platelets/mil. Very similar results are obtained with fresh and outdated platelets.
# A platelet ADP receptor binding assay (ARB) using the tritiated potent agonist ligand [^3H]2-MeS-ADP (Jantzen, H. M. et al. (1999) Thromb. Hemost. 81:111-117) has been adapted to the 96-well microtiter format. In an assay volume of 0.2 ml Hepes-Tyrode's buffer with 0.1% BSA and 0.6% DMSO, 1×10^8 apyrase-washed platelets are preincubated in 96-well flat bottom microtiter plates for 5 minutes with serial dilutions of test compounds before addition of 1 nM [^3H]2-MeS-ADP ([^3H]2-methylthioadenosine-5′-diphosphate, ammonium salt; specific activity 20-50 Ci/mmole, obtained by custom synthesis from Amersham Life Science, Inc., Arlington Heights, Ill., or NEN Life Science Products, Boston, Mass.). Total binding is determined in the absence of test compounds. Samples for nonspecific binding may contain 10 μM unlabelled 2-MeS-ADP (RBI, Natick, Mass.). After incubation for 15 minutes at room temperature, unbound radioligand is separated by rapid filtration and two washes with cold (4-8° C.) Binding Wash Buffer (10 mM Hepes pH 7.4, 138 mM NaCl) using a 96-well cell harvester (Minidisc 96, Skatron Instruments, Sterling, Va.) and 8×12 GF/C glassfiber filtermats (Printed Filtermat A, for 1450 Microbeta, Wallac Inc., Gaithersburg, Md.). The platelet-bound radioactivity on the filtermats is determined in a scintillation counter (Microbeta 1450, Wallac Inc., Gaithersburg, Md.). Specific binding is determined by subtraction of non-specific binding from total binding, and specific binding in the presence of test compounds is expressed as % of specific binding in the absence of test compound dilutions. IC50s were derived by non-linear regression analysis.
# T1 sequence (Q9H244 whole entry): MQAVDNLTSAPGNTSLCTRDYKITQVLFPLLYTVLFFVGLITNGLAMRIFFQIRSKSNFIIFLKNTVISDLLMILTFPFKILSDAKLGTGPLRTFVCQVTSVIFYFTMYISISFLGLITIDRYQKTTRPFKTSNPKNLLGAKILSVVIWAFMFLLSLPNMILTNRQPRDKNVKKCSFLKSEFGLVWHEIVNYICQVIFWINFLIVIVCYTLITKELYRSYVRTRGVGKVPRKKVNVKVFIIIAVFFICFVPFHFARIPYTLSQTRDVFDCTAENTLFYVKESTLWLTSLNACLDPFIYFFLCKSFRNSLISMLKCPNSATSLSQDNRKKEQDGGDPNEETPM
row,SMILES,IC50
1,"O=C(NCc1nnn[nH]1)c1ccc(-n2c(=O)[nH]c3cc(NCc4ccc(F)cc4)ccc3c2=O)cc1 [Compound 10, N-((1H-tetrazol-5-yl)methyl)-4-(7-(4-fluorobenzylamino)-2,4-dioxo-1,2-dihydroquinazolin-3(4H)-yl)benzamide]",> 0.5 µM
2,"CNc1cc2[nH]c(=O)n(-c3ccc(C(=O)NC(C(=O)O)c4cccs4)cc3)c(=O)c2cc1F (stereo not shown) [Compound 8, 2-(4-(6-fluoro-7-(methylamino)-2,4-dioxo-1,2-dihydroquinazolin-3(4H)-yl)benzamido)-2-(thiophen-2-yl)acetic acid]",> 0.5 µM
3,"COc1cccc2c1OCN(c1ccc(C(=O)NC(C(=O)O)c3ccc(Cl)s3)cc1)C2=O (stereo not shown) [Compound 68, 2-(5-chlorothiophen-2-yl)-2-(4-(8-methoxy-4-oxo-2H-benzo[e][1,3]oxazin-3(4H)-yl)benzamido)acetic acid]",> 0.5 µM
4,"CNc1cc2[nH]c(=O)n(-c3ccc(C(=O)N(CCC(=O)O)Cc4ccc(Cl)s4)cc3)c(=O)c2cc1F [Compound 40, 3-(N-((5-chlorothiophen-2-yl)methyl)-4-(6-fluoro-7-(methylamino)-2,4-dioxo-1,2-dihydroquinazolin-3(4H)-yl)benzamido)propanoic acid]",> 0.5 µM
5,"CNc1cc2[nH]c(=O)n(-c3ccc(C(=O)NC(c4ccc(Cl)c(Cl)c4)c4nnn[nH]4)cc3)c(=O)c2cc1F (stereo not shown) [Compound 29, N-((3,4-dichlorophenyl)(1H-tetrazol-5-yl)methyl)-4-(6-fluoro-7-(methylamino)-2,4-dioxo-1,2-dihydroquinazolin-3(4H)-yl)benzamide]",> 0.5 µM
6,"N#Cc1ccc2c(=O)n(-c3ccc(C(=O)NC(C(=O)O)c4ccc(Cl)s4)cc3)ccc2c1 (stereo not shown) [Compound 98, 2-(5-chlorothiophen-2-yl)-2-(4-(6-cyano-1-oxoisoquinolin-2(1H)-yl)benzamido) acetic acid]",> 0.5 µM
7,CNc1cc2[nH]c(=O)n(-c3ccc(C(=O)NC(c4cccc(C(F)(F)F)c4)c4nnn[nH]4)cc3)c(=O)c2cc1F (stereo not shown) [Compound 34],> 0.5 µM
8,"CNc1cc2[nH]c(=O)n(-c3ccc(C(=O)NC(c4cccc(F)c4)c4nnn[nH]4)cc3)c(=O)c2cc1F (stereo not shown) [Compound 24, 4-(6-fluoro-7-(methylamino)-2,4-dioxo-1,2-dihydroquinazolin-3(4H)-yl)-N-((3-fluorophenyl)(1H-tetrazol-5-yl)methyl)benzamide]",> 0.5 µM

# The remaining lines, values ahead:
row,IC50,SMILES
1,> 0.5 µM,"CNc1cc2[nH]c(=O)n(-c3cccc(C(=O)NC(C(=O)O)c4ccc(Cl)s4)c3)c(=O)c2cc1F (stereo not shown) [Compound 111, 2-(5-chlorothiophen-2-yl)-2-(3-(6-fluoro-7-(methylamino)-2,4-dioxo-1,2-dihydroquinazolin-3(4H)-yl)benzamido)acetic acid]"
2,> 0.5 µM,"CNc1cc2[nH]c(=O)n(-c3cc(C(=O)NC(C(=O)O)c4ccc(Cl)s4)cs3)c(=O)c2cc1F (stereo not shown) [Compound 113, 2-(5-chlorothiophen-2-yl)-2-(5-(6-fluoro-7-(methylamino)-2,4-dioxo-1,2-dihydroquinazolin-3(4H)-yl)thiophene-3-carboxamido)acetic acid]"
3,> 0.5 µM,"CNc1cc2c(cc1F)C(=O)N(c1ccc(CC(=O)NC(C(=O)N(C)C)c3ccc(Cl)s3)cc1)CO2 (stereo not shown) [Compound 120, 2-(5-chlorothiophen-2-yl)-2-(2-(4-(6-fluoro-7-(methylamino)-4-oxo-2H-benzo[e][1,3]oxazin-3(4H)-yl)phenyl)acetamido)-N,N-dimethylacetamide]"
4,0.05 to 0.5 µM,"CNc1cc2c(cc1F)C(=O)N(c1ccc(C(=O)NC(C(=O)OC)c3ccc(Cl)s3)cc1)CO2 (stereo not shown) [Compound 66, methyl 2-(5-chlorothiophen-2-yl)-2-(4-(6-fluoro-7-(methylamino)-4-oxo-2H-benzo[e][1,3]oxazin-3(4H)-yl)benzamido)acetate]"
5,0.05 to 0.5 µM,"CCOC(=O)C(NC(=O)c1ccc(N2COc3cc(NC)c(F)cc3C2=O)cc1)c1ccc(Cl)s1 (stereo not shown) [Compound 67, ethyl 2-(5-chlorothiophen-2-yl)-2-(4-(6-fluoro-7-(methylamino)-4-oxo-2H-benzo[e][1,3]oxazin-3(4H)-yl)benzamido)acetate]"
